In PMC8642306 (Lung cancer (Amsterdam, Netherlands), 2021):
Several values for one entry are separate records, joined by “and”; a condition that tells them apart may be missing. Identical values can stand only once.

Assays:
[1] = tested on: patients with solid tumors; settings: SNX-5422 alone; cited from earlier work
[2] = Plasma pharmacokinetics after oral SNX-5422; assay type: in vivo, human
[3] = tested on: patients with advanced lung cancers; experiment: Dose determination; assay type: in vivo, human; settings: for Dose-limiting toxicities (DLTs): cycle 1, with carboplatin-paclitaxel
[4] = tested on: patients with advanced lung cancers; settings: human, in vivo
patients with NSCLC = experiment: Anti-tumor activity; assay type: in vivo, human
[5] = tested on: head and neck squamous cancer cell lines; settings: cited from earlier work
[6] = SNX-5422 doses of 50, 75, and 100 mg/m^2

Compound: CC1(C)CC(=O)c2c(C(F)(F)F)nn(-c3ccc(C(N)=O)c(N[C@H]4CC[C@H](OC(=O)CN)CC4)c3)c2C1 [SNX-5422]
- Single-agent maximum tolerated dose (MTD) [1]: 100 mg/m^2
- Concentrations of SNX-5422 in samples collected after dosing ([2]; oral SNX-5422): no measurable concentrations
- Dose-limiting toxicities (DLTs) ([3]; 50 mg/m^2 cohort (n=3)): no DLTs
- Dose-limiting toxicities (DLTs) ([3]; 75 mg/m^2 cohort (n=4)): no DLTs
- Maximum tolerated dose (MTD) of SNX-5422 ([3]; qod, in combination with carboplatin (AUC 5) and paclitaxel (175 mg/m^2)): 100 mg/m^2
- Any treatment-related AE, All Grade [4]: 7 (54) n (%)
- Any treatment-related AE, Grade 1 [4]: 1 (8) n (%)
- Any treatment-related AE, Grade 2 [4]: 4 (31) n (%)
- Any treatment-related AE, Grade 3 [4]: 2 (15) n (%)
- Any treatment-related AE, Grade 4 [4]: 0 n (%)
- Decreased appetite, All Grade [4]: 2 (15) n (%)
- Decreased appetite, Grade 1 [4]: 1 (8) n (%)
- Decreased appetite, Grade 2 [4]: 1 (8) n (%)
- Decreased appetite, Grade 3 [4]: 0 n (%)
- Decreased appetite, Grade 4 [4]: 0 n (%)
- Diarrhea, All Grade [4]: 3 (23) n (%)
- Diarrhea, Grade 1 [4]: 0 n (%)
- Diarrhea, Grade 2 [4]: 1 (8) n (%)
- Diarrhea, Grade 3 [4]: 2 (15) n (%)
- Diarrhea, Grade 4 [4]: 0 n (%)
- Fatigue, All Grade [4]: 2 (15) n (%)
- Fatigue, Grade 1 [4]: 1 (8) n (%)
- Fatigue, Grade 2 [4]: 1 (8) n (%)
- Fatigue, Grade 3 [4]: 0 n (%)
- Fatigue, Grade 4 [4]: 0 n (%)
- Nausea, All Grade [4]: 2 (15) n (%)
- Nausea, Grade 1 [4]: 2 (15) n (%)
- Nausea, Grade 2 [4]: 0 n (%)
- Nausea, Grade 3 [4]: 0 n (%)
- Nausea, Grade 4 [4]: 0 n (%)
- Treatment-related decreased appetite [4]: 15%
- Treatment-related diarrhea [4]: 23%
- Treatment-related fatigue [4]: 15%
- Treatment-related grade 3/4 diarrhea [4]: 15%
- Treatment-related grade 3/4 nausea [4]: 0%
- Treatment-related nausea [4]: 15%
- Duration of disease control on single-agent maintenance (patients with NSCLC; HER2, RET, KRAS, and EGFR-mutations): 4–12 months
- Time on SNX-5422 maintenance (patients with NSCLC; another patient with KRAS-mutant NSCLC, unconfirmed response): ~ 5 months
- Time on SNX-5422 maintenance (patients with NSCLC; one patient with HER2-mutant NSCLC, partial response): 12 months and ~ 12 months
- Time on SNX-5422 maintenance prior to progression (patients with NSCLC; one patient with KRAS-mutant NSCLC, partial response): ~ 7 months

Compound: CC1(C)CC(=O)c2c(C(F)(F)F)nn(-c3ccc(C(N)=O)c(N[C@H]4CC[C@H](O)CC4)c3)c2C1 [SNX-2112]
- Activity with carboplatin and paclitaxel [5]: combinatorial activity
- AUC0–24 of SNX-2112, dose proportionality [2, 6]: increased in a slightly greater than proportional manner
- Maximum plasma concentration of SNX-2112, dose proportionality [2, 6]: increased in approximate proportion to dose
- half-life ([2]; human, plasma, po): ~8 h
